{
  "source": "patent US5182298A",
  "about": "“Cholesterol lowering agents” (Merck & Co., Inc., priority 1991, dated 1993)",
  "key": {"[1]": {"assay": "light stability on isolation and handling", "format": "physicochemical"}, "[2]": {"system": "Phoma sp.", "assay": "FISP disc diffusion assay, zone of inhibition", "format": "cell-based", "set-up": "key: clear zone throughout, sharp edges; F: clear zone, fuzzy edges; S: slightly hazy zone (some growth observed throughout zone); H: hazy zone (considerable growth observed throughout zone); V: very hazy zone (zone of inhibition is barely discernable); R: zone displays a ring of resistant growth", "details": "CH2Cl2, 250 μg/ml", "text": "(§1) The FISP assay employs disc diffusion susceptibility testing methods to generate a spectrum of activity against a panel of representative yeasts, filamentous fungi and bacteria.\n(§2) The filamentous fungi used in the assay were Penicillium sp. Aspergillus niger, Trichoderma sp., Phoma sp., Trichoderma lignorum, Fusarium oxysporum, Ustilago maydis, Ceratocystis ulmi, Alternaria soloni, Verticillium serrae, Botrytis allii, Scopulariopsis communis, Cephalosporium sp., Cercospora beticola, Rhizomucor miehei, Aspergillus flavus and Aspergillus fumigatus.\n(§3) For carrying out the assay, seeded assay plates are prepared in the following manner according to the type of assay strain.\n(§4) Inocula for filamentous fungi are prepared by scraping the surface of stock plates maintained on potato dextrose agar with a moistened sterile dacron swab. The spores and mycelia are then suspended in 10 milliliters of sterile potato dextrose broth and adjusted to 65 percent transmission at 660 nm.\n(§5) Assay plates for the yeasts and filamentous fungi are prepared by diluting the inoculum into appropriate molten agar medium, cooled to 45° C. to obtain a final concentration of 4 percent.\n(§6) The seeded agar media thus prepared are dispensed into petri dishes for assays (11 milliliters per dish).\n(§7) The samples to be tested for production of antifungal agent are applied to 6.2 mm. filter paper discs (25 microliter/disc) and air dried at 24° C. When the sample to be tested is crude broth, it may be centrifuged prior to application. The discs bearing the material to be tested are then applied employing sterile conditions to the seeded assay plates. The assay plates are then incubated at either 28° C. or 37° C. for 24 hours. In one of the assays for Bacillus subtilis, the sample is applied to a disc previously impregnated with 4M potassium chloride at 25 μl/disc and then air dried.\n(§8) Following incubation, the inhibition zones are measured and recorded. The measurements are made from the extreme edge where growth differs from the background zone. […]"}, "[3]": {"system": "Ceratocystis ulmi", "assay": "FISP disc diffusion assay, zone of inhibition", "format": "cell-based", "set-up": "key: clear zone throughout, sharp edges; F: clear zone, fuzzy edges; S: slightly hazy zone (some growth observed throughout zone); H: hazy zone (considerable growth observed throughout zone); V: very hazy zone (zone of inhibition is barely discernable); R: zone displays a ring of resistant growth", "details": "CH2Cl2, 250 μg/ml", "text": "as §1, §2, §3, §4, §5, §6, §7, §8"}, "[4]": {"system": "Cephalosporium sp.", "assay": "FISP disc diffusion assay, zone of inhibition", "format": "cell-based", "set-up": "key: clear zone throughout, sharp edges; F: clear zone, fuzzy edges; S: slightly hazy zone (some growth observed throughout zone); H: hazy zone (considerable growth observed throughout zone); V: very hazy zone (zone of inhibition is barely discernable); R: zone displays a ring of resistant growth", "details": "CH2Cl2, 250 μg/ml", "text": "as §1, §2, §3, §4, §5, §6, §7, §8"}, "[5]": {"system": "Bacillus subtilis", "assay": "FISP disc diffusion assay, zone of inhibition", "format": "cell-based", "details": "CH2Cl2, 250 μg/ml, agar diffusion", "description": "as §1\nThe bacteria employed in the assay are Streptomyces sp., Acholeplasma laidlawii and Bacillus subtilis.\nas §3\nSeeded agar for Bacillus subtilis are prepared from a commercially available spore suspension which is diluted directly into molten agar (45° C.) to obtain a final concentration of 0.1 percent.\nas §6, §7\n(§9) Following incubation, the inhibition zones are measured and recorded. […]"}, "[6]": {"system": "Aspergillus niger", "assay": "FISP disc diffusion assay, zone of inhibition", "format": "cell-based", "details": "24 h, CH2Cl2, 250 μg/ml, agar diffusion, two lines for this species, read-out: Zone: diameter of the zone of inhibition of growth", "text": "as §1, §2, §3, §4, §5\n(§10) The seeded agar media thus prepared are dispensed into petri dishes for assays (11 milliliters per dish). […]\nas §9"}, "[7]": {"system": "Torulospora hansenii", "assay": "FISP disc diffusion assay, zone of inhibition", "format": "cell-based", "set-up": "key: clear zone throughout, sharp edges; F: clear zone, fuzzy edges; S: slightly hazy zone (some growth observed throughout zone); H: hazy zone (considerable growth observed throughout zone); V: very hazy zone (zone of inhibition is barely discernable); R: zone displays a ring of resistant growth", "details": "CH2Cl2, 250 μg/ml", "text": "as §1\n(§11) The yeasts employed in the assay are Saccharomyces cerevisiae, Candida albicans, Candida tropicalis, Candida rugosa, Brettanomyces bruxellensis, Torulospora hansenii, Candida guilliermondi, Candida pseudotropicalis, Torulopsis glabrata, Cryptococcus albidus, Cryptococcus laurentii and Kluyveromyces fragilis.\nas §3\n(§12) Inocula for yeasts and bacterial strains are prepared from overnight broth cultures then diluted into potato dextrose agar to a final concentration of either 40 percent or 70 percent transmission at 660 nm.\nas §5, §6\n(§13) The samples to be tested for production of antifungal agent are applied to 6.2 mm. filter paper discs (25 microliter/disc) and air dried at 24° C. […]\nas §9"}, "[8]": {"system": "Candida albicans", "assay": "FISP disc diffusion assay, zone of inhibition", "format": "cell-based", "details": "24 h, CH2Cl2, 250 μg/ml, agar diffusion, five lines without medium suffix, read-out: Zone: diameter of the zone of inhibition of growth", "text": "as §1, §11, §3, §12\n(§14) For three strains of Candida albicans and one strain of Saccharomyces cerevisiae, sterile saline is employed in place of potato dextrose broth.\nas §5, §10, §9"}, "[9]": {"system": "Saccharomyces cerevisiae", "assay": "FISP disc diffusion assay, zone of inhibition", "format": "cell-based", "details": "24 h, CH2Cl2, 250 μg/ml, agar diffusion, two lines without medium suffix, read-out: Zone: diameter of the zone of inhibition of growth", "text": "as §1, §11, §3, §12, §14, §5, §10, §9"}, "[10]": {"system": "Candida guilliermondii", "assay": "FISP disc diffusion assay, zone of inhibition", "format": "cell-based", "details": "Meyerozyma guilliermondii, 24 h; CH2Cl2, 250 μg/ml; agar diffusion; read-out: Zone: diameter of the zone of inhibition of growth", "text": "as §1, §11, §3, §12, §5, §6, §13, §9"}, "[11]": {"system": "Torulopsis glabrata", "assay": "FISP disc diffusion assay, zone of inhibition", "format": "cell-based", "details": "Nakaseomyces glabratus, 24 h; CH2Cl2, 250 μg/ml; agar diffusion; read-out: Zone: diameter of the zone of inhibition of growth", "text": "as §1, §11, §3, §12, §5, §6, §13, §9"}, "[12]": {"system": "Candida guilliermondii", "assay": "Microdilution Broth Assay (MIC/MFC)", "format": "cell-based", "details": "Meyerozyma guilliermondii, strain MY 1019", "description": "(§15) The broad spectrum antifungal activity of the present compounds was further determined by broth dilution methods. The compounds are particularly active towards filamentous fungi and yeasts including Candida albicans and Crypt. neoformans. The sensitivity of filamentous fungi and yeasts was determined using inhibitor dilution assays in microtiter format. A standardized spore suspension for testing the filamentous fungi was prepared by inoculating sterile distilled water with spores such that 1.5-7.5×10^3 colony forming units were added per well. The microtiter wells were filled with 75 μl of yeast nitrogen base containing 1% Dextrose medium (YNB/D) containing compound. Fifty μl of inoculated YNB/D medium was then added to the wells.\n(§16) The sensitivity of yeasts was determined by inoculating sterile distilled water with aliquots of a 4-hour yeast culture grown in Yeast Morphology (YM) media at 35° C. and diluting in YNB/D to yield a final concentration of 1.5-7.5×10^3 colony forming units/well. Seventy-five μl of inoculated media was added per well. To test the sensitivity of yeast, compound was solubilized in 10 percent aqueous DMSO at 2.56 mg/ml. The compound was diluted serially in YNB/D from 128 to 0.06 μg/ml. The wells were filled with 75 μl of drug containing media. […] Representative of the antifungal activity are the minimum inhibitory concentration and minimum fungicidal concentration data shown below in Table II: […]"}, "[13]": {"system": "Candida albicans", "assay": "Microdilution Broth Assay (MIC/MFC)", "format": "cell-based", "description": "as §15, §16"}, "[14]": {"system": "Cryptococcus neoformans", "assay": "Microdilution Broth Assay (MIC/MFC)", "format": "cell-based", "details": "for MIC: 35° C., read-out: MIC (minimum inhibitory concentration)", "description": "as §15, §16"}, "[15]": {"system": "Saccharomyces cerevisiae", "assay": "Microdilution Broth Assay (MIC/MFC)", "format": "cell-based", "description": "as §15, §16"}, "[16]": {"system": "Candida tropicalis", "assay": "Microdilution Broth Assay (MIC/MFC)", "format": "cell-based", "description": "as §15, §16"}, "[17]": {"system": "Candida parapsilosis", "assay": "Microdilution Broth Assay (MIC/MFC)", "format": "cell-based", "details": "Lodderomyces parapsilosis; strain MY 1010; read-out: MFC (minimum fungicidal concentration)", "description": "as §15, §16"}},
  "note": "Like-named read-outs stand apart in the source and are kept apart here.",
  "data": [
    {"smiles": "CC(/C=C/C=C(\\C)C(O)C(C)C(=O)O[C@H]1C[C@H](C)C=C2C=C[C@@]3(C)O[C@@H](O)CC(=O)[C@]3(C)[C@H]21)=C\\C=C\\C(=O)O", "note": "(some centres unmarked) [Compound A]", "values": [
      {"measurement": "light sensitivity", "setting": "[1]", "result": "light sensitive"},
      {"measurement": "stability", "setting": "[1]; isolated and worked with in the absence of light", "result": "stable"},
      {"measurement": "Zone quality (qualifier)", "setting": "[2]", "result": "S"},
      {"measurement": "Zone quality (qualifier)", "setting": "[3]", "result": "V"},
      {"measurement": "Zone quality (qualifier)", "setting": "[4]", "result": "F"},
      {"measurement": "zone of inhibition at 250 µg/mL", "setting": "[5]; Bacillus subtilis, 24 h, KCl (disc impregnated with 4M potassium chloride), read-out: Zone: diameter of the zone of inhibition of growth", "result": 0, "unit": "mm"},
      {"measurement": "Zone: diameter of the zone of inhibition of growth", "setting": "[5]", "result": 0, "unit": "mm"},
      {"measurement": "zone of inhibition at 250 µg/mL", "setting": "[6]", "result": 0, "unit": "mm"},
      {"measurement": "Zone quality (qualifier)", "setting": "[7]", "result": "H"},
      {"measurement": "zone of inhibition at 250 µg/mL", "setting": "[8]", "result": 0, "unit": "mm"},
      {"measurement": "zone of inhibition at 250 µg/mL", "setting": "[9]", "result": 0, "unit": "mm"},
      {"measurement": "zone of inhibition at 250 µg/mL", "setting": "[10]", "result": 0, "unit": "mm"},
      {"measurement": "zone of inhibition at 250 µg/mL", "setting": "[11]", "result": 0, "unit": "mm"},
      {"measurement": "MIC", "setting": "[12]; 24 to 48 hours, 35° C., read-out: MIC (minimum inhibitory concentration)", "result": "> 128", "unit": "µg/mL"},
      {"measurement": "MFC", "setting": "[12]; read-out: MFC (minimum fungicidal concentration)", "result": "> 128", "unit": "µg/mL"},
      {"measurement": "MIC", "setting": "[13]; Candida albicans, strain MY 1055, 24 to 48 hours, 35° C., read-out: MIC (minimum inhibitory concentration)", "result": "≤ 0.06", "unit": "µg/mL"},
      {"measurement": "MFC", "setting": "[13]; Candida albicans, strain MY 1055, read-out: MFC (minimum fungicidal concentration)", "result": "≤ 0.06", "unit": "µg/mL"},
      {"measurement": "MFC (minimum fungicidal concentration)", "setting": "[13]; strain MY 1028", "result": "≤ 0.06", "unit": "µg/mL"},
      {"measurement": "MIC (minimum inhibitory concentration)", "setting": "[13]; strain MY 1028, 24 to 48 hours, 35° C.", "result": "≤ 0.06", "unit": "µg/mL"},
      {"measurement": "MFC", "setting": "[14]; strain MY 1051, read-out: MFC (minimum fungicidal concentration)", "result": 32, "unit": "µg/mL"},
      {"measurement": "MIC", "setting": "[14]; strain MY 1146, 24 to 48 hours", "result": 128, "unit": "µg/mL"},
      {"measurement": "MFC", "setting": "[14]; strain MY 1146, read-out: MFC (minimum fungicidal concentration)", "result": 64, "unit": "µg/mL"},
      {"measurement": "MIC", "setting": "[14]; strain MY 2061, 24 to 48 hours", "result": 128, "unit": "µg/mL"},
      {"measurement": "MFC", "setting": "[14]; strain MY 2061, read-out: MFC (minimum fungicidal concentration)", "result": 64, "unit": "µg/mL"},
      {"measurement": "MIC", "setting": "[15]; strain MY 1976, 24 to 48 hours, 35° C., read-out: MIC (minimum inhibitory concentration)", "result": "> 128", "unit": "µg/mL"},
      {"measurement": "MFC", "setting": "[15]; strain MY 1976, read-out: MFC (minimum fungicidal concentration)", "result": "> 128", "unit": "µg/mL"},
      {"measurement": "MIC", "setting": "[16]; strain MY 1012, 24 to 48 hours, 35° C., read-out: MIC (minimum inhibitory concentration)", "result": "≤ 0.06", "unit": "µg/mL"},
      {"measurement": "MFC", "setting": "[16]; strain MY 1012, read-out: MFC (minimum fungicidal concentration)", "result": 0.5, "unit": "µg/mL"},
      {"measurement": "MFC", "setting": "[17]", "result": 0.25, "unit": "µg/mL"}
    ]}
  ]
}
